# Key:
# [1] = target: T1, human recombinant histamine H1 receptor (Homo sapiens, UniProt P35367); assay: Histamine H1 radioligand binding ([3H]Pyrilamine); conditions: 0.1 μM compound; for inhibition at 0.1 µM: read-out: Binding data (Percentage inhibition) Histamine H1 (0.1 μM)
# T1 construct: expressed in transfected cells; host or cells: CHO-K1
# Procedure: To evaluate in radioligand binding assays the activity of compounds of the invention, human recombinant histamine H1 receptor expressed in Chinese hamster ovary (CHO) K1 cells (De Backer, M. et al, Biochem. Biophys. Res. Comm. 197(3):1601, 1993) in a modified Tris-HCl buffer (50 mM Tris-HCl, pH 7.4, 2 mM MgCl2, 100 mM NaCl, 250 mM Sucrose) was used. Compounds of the invention were incubated with 1.2 nM [^3H]Pyrilamine for 180 min at 25° C. Non-specific binding was estimated in the presence of 1 μM Pyrilamine. Receptor proteins were filtered and washed, the filters were then counted to determine [^3H]Pyrilamine specifically bound. Compounds were screened at 1 μM or lower, using 1% DMSO as vehicle. Biochemical assay results are presented as the percent inhibition of specific binding in Table 3.
# [2] = target: T2, rat adrenergic α1B receptor (Rattus norvegicus, UniProt P15823); assay: Adrenergic α1B radioligand binding ([3H]Prazosin); conditions: 0.1 μM compound; for inhibition at 0.1 µM: read-out: Percentage inhibition of ligand binding, Adrenergic α1B; for Percentage inhibition of ligand binding, Adrenergic α1B: 0.1 µM
# T2 construct: rat adrenergic α1B receptor obtained from Wistar Rat liver; from tissue; host or cells: Wistar rat liver
# T2 sequence (P15823 1-515): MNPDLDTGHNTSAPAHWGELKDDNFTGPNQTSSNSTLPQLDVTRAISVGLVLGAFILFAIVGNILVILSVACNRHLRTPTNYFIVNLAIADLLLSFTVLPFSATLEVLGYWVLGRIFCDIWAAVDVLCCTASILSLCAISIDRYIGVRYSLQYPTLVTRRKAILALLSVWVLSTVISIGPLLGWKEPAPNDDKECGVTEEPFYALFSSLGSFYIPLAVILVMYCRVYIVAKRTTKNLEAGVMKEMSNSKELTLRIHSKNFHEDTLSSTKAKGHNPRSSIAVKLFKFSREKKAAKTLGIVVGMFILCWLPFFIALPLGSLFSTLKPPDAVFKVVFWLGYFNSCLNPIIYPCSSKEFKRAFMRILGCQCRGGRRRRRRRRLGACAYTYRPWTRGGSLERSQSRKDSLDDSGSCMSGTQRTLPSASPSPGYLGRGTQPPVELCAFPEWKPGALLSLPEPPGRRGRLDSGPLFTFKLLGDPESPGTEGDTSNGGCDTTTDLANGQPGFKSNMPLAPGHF
# Procedure: To evaluate in radioligand binding assays the activity of compounds of the invention, rat adrenergic α1B receptor obtained from Wistar Rat liver (Garcia-S'ainz, J. et al, Biochem. Biophys. Res. Commun. 186:760, 1992; Michel, A. et al, Br. J. Pharmacol. 98:883, 1989) in a modified Tris-HCl buffer (50 mM Tris-HCl buffer, pH 7.4, 0.5 mM EDTA) was used. Compounds of the invention were incubated with 0.25 nM [^3H]Prazosin for 60 min at 25° C. Non-specific binding was estimated in the presence of 10 μM phentolamine. Receptor proteins were filtered and washed, the filters were then counted to determine [^3H]Prazosin specifically bound. Compounds were screened at 1 μM or lower, using 1% DMSO as vehicle. Biochemical assay results are presented as the percent inhibition of specific binding in Table 3.
# [3] = target: T3, human recombinant adrenergic α2B receptor (Homo sapiens, UniProt P18089); assay: Adrenergic α2B radioligand binding ([3H]Rauwolscine); conditions: for inhibition at 0.1 µM: 0.1 μM compound; for Percentage inhibition of ligand binding, Adrenergic α2B: 0.03 µM
# T3 construct: expressed in transfected cells; host or cells: CHO-K1
# T3 sequence (P18089 1-450): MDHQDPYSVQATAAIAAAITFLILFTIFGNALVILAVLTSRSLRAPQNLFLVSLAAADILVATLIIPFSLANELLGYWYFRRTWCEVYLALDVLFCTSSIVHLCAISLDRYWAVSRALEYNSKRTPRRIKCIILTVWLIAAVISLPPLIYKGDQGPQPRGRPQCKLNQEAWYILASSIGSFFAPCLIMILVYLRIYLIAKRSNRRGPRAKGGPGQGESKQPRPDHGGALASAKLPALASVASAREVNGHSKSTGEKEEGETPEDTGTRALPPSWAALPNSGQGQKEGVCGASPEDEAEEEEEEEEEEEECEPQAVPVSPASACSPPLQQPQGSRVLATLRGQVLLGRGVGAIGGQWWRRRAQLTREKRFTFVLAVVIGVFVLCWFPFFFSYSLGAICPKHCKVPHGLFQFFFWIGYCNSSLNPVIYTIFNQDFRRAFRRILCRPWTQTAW
# Procedure: To evaluate in radioligand binding assays the activity of compounds of the invention, human recombinant adrenergic α2B receptor expressed in Chinese hamster ovary (CHO) K1 cells (Uhlen, S. et al, Eur. J. Pharmacol. 343(1):93, 1998) in a modified Tris-HCl buffer (50 mM Tris-HCl, pH 7.4, 12.5 mM MgCl2, 1 mM EDTA, 0.2% BSA) was used. Compounds of the invention were incubated with 2.5 nM [^3H]Rauwolscine for 60 min at 25° C. Non-specific binding was estimated in the presence of 10 μM Prazosin. Receptor proteins were filtered and washed, the filters were then counted to determine [^3H]Rauwolscine specifically bound. Compounds were screened at 1 μM or lower, using 1% DMSO as vehicle. Biochemical assay results are presented as the percent inhibition of specific binding in Table 3.
# [4] = read-out: Percentage inhibition of ligand binding, Adrenergic α2B
# T1 sequence (P35367 whole entry): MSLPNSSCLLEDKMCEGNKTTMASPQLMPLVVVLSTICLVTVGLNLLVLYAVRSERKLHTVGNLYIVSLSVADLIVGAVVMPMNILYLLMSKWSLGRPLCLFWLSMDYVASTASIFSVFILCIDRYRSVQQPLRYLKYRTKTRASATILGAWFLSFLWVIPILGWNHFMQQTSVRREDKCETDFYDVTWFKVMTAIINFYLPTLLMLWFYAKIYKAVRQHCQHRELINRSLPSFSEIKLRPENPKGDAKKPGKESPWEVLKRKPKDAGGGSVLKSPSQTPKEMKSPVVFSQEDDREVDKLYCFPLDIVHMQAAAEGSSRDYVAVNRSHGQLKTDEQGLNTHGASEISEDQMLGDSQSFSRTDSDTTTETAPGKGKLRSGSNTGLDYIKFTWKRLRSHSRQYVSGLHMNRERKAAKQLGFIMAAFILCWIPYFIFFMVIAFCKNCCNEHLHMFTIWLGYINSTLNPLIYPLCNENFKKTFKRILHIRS
SMILES,inhibition at 0.1 µM [1],inhibition at 0.1 µM [2],"inhibition at 0.1 µM [3, 4]",Binding data (Percentage inhibition) Histamine H1 (0.1 μM) [1],"Percentage inhibition of ligand binding, Adrenergic α1B [2]","Percentage inhibition of ligand binding, Adrenergic α2B ([3]; 0.03 μM compound)","inhibition at 0.03 µM ([3]; 0.03 μM compound, read-out: Percentage inhibition of ligand binding, Adrenergic α2B)"
Cc1ccc2c(c1)c1c(n2/C=C2/CCCc3ccccc32)CCN(C)C1 [i-2],28%,85%,81%,,,,
"Cc1ccc2c(c1)c1c(n2CC2(O)CCCc3cnccc32)CCN(C)C1 (single isomer, unassigned) [ii-74a]",,,,1%,12%,22%,
"Cc1ccc2c(c1)c1c(n2CC2(O)CCCc3ccncc32)CCN(C)C1 (single isomer, unassigned) [ii-113a]",,,,13%,5%,23%,
Cc1ccc2c(c1)c1c(n2/C=C2\CCCc3ccccc32)CCN(C)C1 [i-3],32%,66%,57%,,,,
"Cc1ccc2c(c1)c1c(n2CC2(O)CCCc3ncccc32)CCN(C)C1 (single isomer, unassigned) [ii-112b]",,,,13%,14%,40%,
"Cc1ccc2c(c1)c1c(n2CC2(O)CCCc3cnccc32)CCN(C)C1 (single isomer, unassigned) [ii-74b]",,,,11%,83%,69%,
"Cc1ccc2c(c1)c1c(n2CC2(O)CCCc3ncccc32)CCN(C)C1 (single isomer, unassigned) [ii-112a]",,,,4%,79%,,58%
